This passage reports IC50 results from patent publication US20250361234A1 (NICO THERAPEUTICS, INC., priority 2022, published 2025).

For this experiment, the target named is T1, full-length SARM1 (FL-SARM1) (Homo sapiens, UniProt Q6SZW1).
T1 sequence (Q6SZW1 28-724): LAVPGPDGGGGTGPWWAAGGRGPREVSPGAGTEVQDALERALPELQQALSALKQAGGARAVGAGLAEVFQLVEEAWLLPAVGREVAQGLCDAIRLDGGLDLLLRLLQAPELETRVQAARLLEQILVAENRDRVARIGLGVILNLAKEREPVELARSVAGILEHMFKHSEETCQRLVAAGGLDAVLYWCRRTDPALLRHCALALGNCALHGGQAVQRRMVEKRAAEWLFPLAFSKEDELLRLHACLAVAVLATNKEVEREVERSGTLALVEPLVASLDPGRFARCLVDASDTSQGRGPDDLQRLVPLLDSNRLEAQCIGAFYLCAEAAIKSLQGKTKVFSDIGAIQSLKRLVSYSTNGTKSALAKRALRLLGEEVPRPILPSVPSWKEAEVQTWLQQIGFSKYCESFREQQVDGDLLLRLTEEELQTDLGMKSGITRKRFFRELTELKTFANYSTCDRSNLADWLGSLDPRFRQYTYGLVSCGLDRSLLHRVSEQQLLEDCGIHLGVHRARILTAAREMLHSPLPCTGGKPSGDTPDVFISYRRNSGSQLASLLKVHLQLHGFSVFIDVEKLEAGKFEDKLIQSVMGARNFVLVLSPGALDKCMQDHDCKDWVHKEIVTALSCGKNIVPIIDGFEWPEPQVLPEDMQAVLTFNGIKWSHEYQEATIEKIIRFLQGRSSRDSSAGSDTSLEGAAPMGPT
In words: FL-SARM1 cellular lysate assay (NAD/NADH-Glo readout of remaining NAD+). Conditions: SARM1 cellular lysate from transfected HEK293T cells, NAD+ and NMN, 11 point curve.

`COC[C@H]1C2CCC[C@H]1N2C(=O)Nc1ccc(C)c(-c2cncc(F)c2)c1` [Example 44, N-trans-(3-(5-fluoropyridin-3-yl)-4-methylphenyl)-7-(methoxymethyl)-6-azabicyclo[3.1.1]heptane-6-carboxamide]: the half-maximal inhibitory concentration (IC50) reads like this: (Activity (μM)) 17.2 µM; (Activity) greater than 10 µM.
The like results for `Cc1ccc(NC(=O)N2C3CCCC2C3)cc1-c1cncc(OCF)c1` [Example 45, N-(3-(5-(fluoromethoxy)pyridin-3-yl)-4-methylphenyl)-6-azabicyclo[3.1.1]heptane-6-carboxamide] were, in that order, 0.06 µM and 0.0001 to 1 µM.
In the case of `Cc1ccc(NC(=O)N2C3CCCC2C3)cc1-c1cncc(S(C)(=O)=O)c1` [Example 47, N-(4-methyl-3-(5-(methylsulfonyl)pyridin-3-yl)phenyl)-6-azabicyclo[3.1.1]heptane-6-carboxamide], the half-inhibitory concentration (IC50) is 17 µM (Activity (μM)) and greater than 10 µM (Activity).
The like results for `Cc1ccc(NC(=O)N2C3CCCC2C3)cc1-c1cncc(OC(F)F)c1` [Example 48, N-(3-(5-(difluoromethoxy)pyridin-3-yl)-4-methylphenyl)-6-azabicyclo[3.1.1]heptane-6-carboxamide] were, in that order, 0.1 µM and 0.0001 to 1 µM.
The like results for `Cc1ccc(NC(=O)N2C3C[C@H](C#N)C[C@@H]2C3)cc1-c1cncc(F)c1` [Example 49, cis-3-cyano-N-(3-(5-fluoropyridin-3-yl)-4-methylphenyl)-6-azabicyclo[3.1.1]heptane-6-carboxamide] were, in that order, 0.4 µM and 0.0001 to 1 µM.
The like results for `Cc1ccc(NC(=O)N2C3CC2CC2(CC2)C3)cc1-c1cncc(F)c1` [Example 54, N-(3-(5-fluoropyridin-3-yl)-4-methylphenyl)-6-azaspiro[bicyclo[3.1.1]heptane-3,1′-cyclopropane]-6-carboxamide] were, in that order, 0.06 µM and 0.0001 to 1 µM.
`O=C(Nc1ccc(Cl)c(-c2cncc(F)c2)c1)N1C2C[C@H](OC(F)F)C[C@H]1C2` [Example 55, trans-N-(4-chloro-3-(5-fluoropyridin-3-yl)phenyl)-3-(difluoromethoxy)-6-azabicyclo[3.1.1]heptane-6-carboxamide]: the IC50 reads like this: (Activity (μM)) 0.3 µM; (Activity) 0.0001 to 1 µM.
In the case of `Cc1ccc(NC(=O)N2C3C[C@H](OC(F)F)C[C@H]2C3)cc1-c1cncc(F)c1` [Example 56, trans-3-(difluoromethoxy)-N-(3-(5-fluoropyridin-3-yl)-4-methylphenyl)-6-azabicyclo[3.1.1]heptane-6-carboxamide], the concentration for half-maximal inhibition (IC50) by setting is: (Activity (μM)) 0.09 µM; (Activity) 0.0001 to 1 µM.
The like results for `COc1ccncc1-c1cc(NC(=O)N2C3CCCC2C3)ccc1C` [Example 59, N-[3-(4-methoxypyridin-3-yl)-4-methylphenyl]-6-azabicyclo[3.1.1]heptane-6-carboxamide] were, in that order, 1.7 µM and 1 to 10 µM.
Take `Cc1ccc(NC(=O)N2C3CCCC2C3)cc1-c1ccc(C#N)nc1` [Example 60, N-[3-(6-cyanopyridin-3-yl)-4-methylphenyl]-6-azabicyclo[3.1.1]heptane-6-carboxamide]: the IC50 was 8.5 µM (Activity (μM)) and 1 to 10 µM (Activity).
The like results for `Cc1ccc(NC(=O)N2C3CCCC2C3)cc1-c1cccnc1C#N` [Example 61, N-[3-(2-cyanopyridin-3-yl)-4-methylphenyl]-6-azabicyclo[3.1.1]heptane-6-carboxamide] were, in that order, 0.8 µM and 0.0001 to 1 µM.
For `Cc1ccc(NC(=O)N2C3CCCC2C3)cc1-c1cnccc1C#N` [Example 62, N-(3-(4-cyanopyridin-3-yl)-4-methylphenyl)-6-azabicyclo[3.1.1]heptane-6-carboxamide], the IC50 runs as follows: (Activity (μM)) 1.1 µM; (Activity) 1 to 10 µM.
The like results for `Cc1ccc(NC(=O)N2C3CCCC2C3)cc1-c1ccnnc1` [Example 63] were, in that order, 25.9 µM and greater than 10 µM.
In the case of `O=C(Nc1ccc(C2CC2)c(-c2cncc(F)c2)c1)N1C2CCCC1C2` [Example 66, N-(4-cyclopropyl-3-(5-fluoropyridin-3-yl)phenyl)-6-azabicyclo[3.1.1]heptane-6-carboxamide], the IC50 is, setting by setting: (Activity (μM)) 2 µM; (Activity) 1 to 10 µM.
Regarding `COc1ccc(-c2cc(NC(=O)N3C4CCCC3C4)ccc2C)cn1` [Example 67, N-(3-(6-methoxypyridin-3-yl)-4-methylphenyl)-6-azabicyclo[3.1.1]heptane-6-carboxamide], the IC50 (Activity (μM)) amounted to 0.4 µM and the IC50 (Activity) lay in the range of 0.0001 to 1 µM.
Regarding `COc1ncccc1-c1cc(NC(=O)N2C3CCCC2C3)ccc1C` [Example 68, N-(3-(2-methoxypyridin-3-yl)-4-methylphenyl)-6-azabicyclo[3.1.1]heptane-6-carboxamide], the IC50 (Activity (μM)) worked out at 2.5 µM and the IC50 (Activity) was in the range of 1 to 10 µM.
The like results for `Cc1ccc(NC(=O)N2C3CCCC2C3)cc1-c1cccnc1C` [Example 69, N-[4-methyl-3-(2-methylpyridin-3-yl)phenyl]-6-azabicyclo[3.1.1]heptane-6-carboxamide] were, in that order, 1.6 µM and 1 to 10 µM.
The like results for `Cc1ccc(-c2cc(NC(=O)N3C4CCCC3C4)ccc2C)cn1` [Example 70, N-[4-methyl-3-(6-methylpyridin-3-yl)phenyl]-6-azabicyclo[3.1.1]heptane-6-carboxamide] were, in that order, 0.3 µM and 0.0001 to 1 µM.
The like results for `COc1cncc(-c2cc(NC(=O)N3C4CCCC3C4)ccc2C)c1` [Example 71, N-(3-(5-methoxypyridin-3-yl)-4-methylphenyl)-6-azabicyclo[3.1.1]heptane-6-carboxamide] were, in that order, 0.08 µM and 0.0001 to 1 µM.
For the molecule `Cc1ccc(NC(=O)N2C3CCCC2C3)cc1-c1cncc(C#N)c1` [Example 72, N-(3-(5-cyanopyridin-3-yl)-4-methylphenyl)-6-azabicyclo[3.1.1]heptane-6-carboxamide], the IC50 (Activity (μM)) was 0.1 µM and the half-inhibitory concentration (IC50) (Activity) was in the range of 0.0001 to 1 µM.
The like results for `O=C(Nc1cccc(-c2cncc(F)c2)c1)N1C2CCCC1C2` [Example 73, N-[3-(5-fluoropyridin-3-yl)phenyl]-6-azabicyclo[3.1.1]heptane-6-carboxamide] were, in that order, 1.2 µM and 1 to 10 µM.
As to `O=C(Nc1ccc(F)c(-c2cncc(F)c2)c1)N1C2CCCC1C2` [Example 74, N-(4-fluoro-3-(5-fluoropyridin-3-yl)phenyl)-6-azabicyclo[3.1.1]heptane-6-carboxamide], 2.8 µM corresponded to half-maximal inhibition (Activity (μM)) (IC50) and the IC50 (Activity) fell in the range of 1 to 10 µM.
Take `O=C(Nc1ccc(C(F)(F)F)c(-c2cncc(F)c2)c1)N1C2CCCC1C2` [Example 75, N-(3-(5-fluoropyridin-3-yl)-4-(trifluoromethyl)phenyl)-6-azabicyclo[3.1.1]heptane-6-carboxamide]: the IC50 is 1 µM (Activity (μM)) and 1 to 10 µM (Activity).
The like results for `CCc1ccc(NC(=O)N2[C@@H]3C[C@H](C)C[C@H]2C3)cc1-c1cncc(F)c1` [Example 76, trans-N-(4-ethyl-3-(5-fluoropyridin-3-yl)phenyl)-3-methyl-6-azabicyclo[3.1.1]heptane-6-carboxamide] were, in that order, 0.03 µM and 0.0001 to 1 µM.
The like results for `Cc1ccc(NC(=O)N2CCOc3cccc(C#N)c3C2)cc1-c1cncc(F)c1` [Example 81] were, in that order, 5.6 µM and 1 to 10 µM.
The like results for `CCc1ccc(NC(=O)N2[C@@H]3C[C@@H](C)C[C@H]2C3)cc1-c1cncc(F)c1` [Example 82, cis-N-(4-ethyl-3-(5-fluoropyridin-3-yl)phenyl)-3-methyl-6-azabicyclo[3.1.1]heptane-6-carboxamide] were, in that order, 0.02 µM and 0.0001 to 1 µM.
As to `Cc1ccc(NC(=O)N2[C@@H]3C[C@H](C)C[C@H]2C3)cc1-c1cncc(F)c1` [Example 84, cis-N-(3-(5-fluoropyridin-3-yl)-4-methylphenyl)-3-methyl-6-azabicyclo[3.1.1]heptane-6-carboxamide], the IC50 runs as follows: (Activity (μM)) 0.007 µM; (Activity) 0.0001 to 1 µM.
The like results for `Cc1ncc(-c2cc(NC(=O)N3C4CCCC3C4)ccc2C)cn1` [Example 85, N-(4-methyl-3-(2-methylpyrimidin-5-yl)phenyl)-6-azabicyclo[3.1.1]heptane-6-carboxamide] were, in that order, 1.8 µM and 1 to 10 µM.
The like results for `Cc1ccc(NC(=O)N2C3CCCC2C3)cc1-c1cccnc1` [Example 86, N-(4-methyl-3-(pyridine-3-yl)phenyl)-6-azabicyclo[3.1.1]heptane-6-carboxamide] were, in that order, 0.2 µM and 0.0001 to 1 µM.
The like results for `Cc1ccc(NC(=O)N2C3CCCC2C3)cc1-c1cncc(F)c1` [Example 87, N-(3-(5-fluoropyridin-3-yl)-4-methylphenyl)-6-azabicyclo[3.1.1]heptane-6-carboxamide] were, in that order, 0.1 µM and 0.0001 to 1 µM.
